After the bases stand the sugars from the 5' end (letter, count) and the backbone: PS all phosphorothioate, else s phosphorothioate and o phosphodiester by linkage. Methylation of C is not given here. e = 2'-O-(2-methoxyethyl) (MOE); k = constrained ethyl (cEt); d = 2'-deoxy (DNA)
Experiments:
[1] = target: SOD1; conditions: ASO
[2] = target: APOL1; conditions: ASO

TAACAGATGAGTTAAGG (sugars e2 k2 d9 k2 e2, PS)
target mRNA inhibition ([1]; HepG2, 0.1875 µM): 21% | target mRNA inhibition ([1]; HepG2, 0.75 µM): 64% | target mRNA inhibition ([1]; HepG2, 3 µM): 85% | target mRNA inhibition ([1]; HepG2, 4 µM): 80% | target mRNA inhibition ([1]; HepG2, 12 µM): 96%

GATCCCAATTACACCAC (sugars e2 k2 d9 k2 e2, PS)
target mRNA inhibition ([1]; HepG2, 4 µM): 58%

GCAAAATACAGGTCATT (sugars e3 k2 d7 k2 e3, PS)
target mRNA inhibition ([1]; HepG2, 3 µM): 43%

CCAGCACCCCGTCTCCGCGA (sugars e5 d10 e5, PS)
target mRNA inhibition ([1]; HepG2, 4 µM): 38%

CCGTCGCCCTTCAGCACGCA (sugars e5 d10 e5, linkages s1 o4 s10 o2 s2)
target mRNA inhibition ([1]; A431, 0.062 µM): 12% | target mRNA inhibition ([1]; A431, 0.185 µM): 13% | target mRNA inhibition ([1]; A431, 0.556 µM): 14% | target mRNA inhibition ([1]; A431, 1.667 µM): 4% | target mRNA inhibition ([1]; A431, 5 µM): 18% | target mRNA inhibition ([1]; A431, 15 µM): 7% | target mRNA inhibition ([1]; SH-SY5Y, 0.062 µM): 16% | target mRNA inhibition ([1]; SH-SY5Y, 0.185 µM): 5% | target mRNA inhibition ([1]; SH-SY5Y, 0.556 µM): 19% | target mRNA inhibition ([1]; SH-SY5Y, 1.667 µM): 36% | target mRNA inhibition ([1]; SH-SY5Y, 5 µM): 68% | target mRNA inhibition ([1]; SH-SY5Y, 15 µM): 80%

TCTTTTAATAGCCTCAT (sugars e2 k2 d8 k2 e3, PS)
target mRNA inhibition ([1]; HepG2, 5 µM): 52%

CTCGCTAGGCCACGCCGAGG (sugars e5 d10 e5, PS)
target mRNA inhibition ([1]; HepG2, 4 µM): 46%

TTACAGTGTTTAATGTT (sugars e3 k2 d7 k2 e3, PS)
target mRNA inhibition ([1]; HepG2, 3 µM): 18%

CAGGATACATTTCTACA (sugars e2 k2 d8 k2 e3, PS)
target mRNA inhibition ([1]; HepG2, 0.1875 µM): 30% | target mRNA inhibition ([1]; HepG2, 0.75 µM): 62% | target mRNA inhibition ([1]; HepG2, 3 µM): 81% | target mRNA inhibition ([1]; HepG2, 4 µM): 79% | target mRNA inhibition ([1]; HepG2, 12 µM): 94%

ACTTTTAAGATTACAGTGTT (sugars e5 d10 e5, PS)
target mRNA inhibition ([1]; HepG2, 5 µM): 24%

TTTAATGTTTATCAGG (sugars ekddddddddekekee, linkages s1 o1 s8 o3 s2)
target mRNA inhibition ([1]; A431, 0.12 µM): 20% | target mRNA inhibition ([1]; A431, 0.6 µM): 5% | target mRNA inhibition ([1]; A431, 3 µM): 12% | target mRNA inhibition ([1]; A431, 15 µM): 33% | target mRNA inhibition ([1]; HepG2, 0.222 µM): 21% | target mRNA inhibition ([1]; HepG2, 0.667 µM): 38% | target mRNA inhibition ([1]; HepG2, 2 µM): 58% | target mRNA inhibition ([1]; HepG2, 6 µM): 81%

TATACAAATCTTCCAAG (sugars e3 k2 d7 k2 e3, PS)
target mRNA inhibition ([1]; HepG2, 3 µM): 11%

CTTCATCCTTTGGCCCA (sugars e3 k2 d7 k2 e3, PS)
target mRNA inhibition ([1]; HepG2, 3 µM): 35%

CAAGTTTAATACCCATC (sugars e2 k2 d8 k2 e3, PS)
target mRNA inhibition ([1]; HepG2, 5 µM): 52%

AGCAGGATAACAGATGAGTT (sugars e5 d10 e5, PS)
target mRNA inhibition ([1]; HepG2, 4 µM): 70% | target mRNA inhibition ([1]; HepG2, 12 µM): 89%

CATCTGTGATTTAAGTC (sugars e2 k2 d8 k2 e3, PS)
target mRNA inhibition ([1]; HepG2, 5 µM): 42%

AATTACACCACAAGCCA (sugars e3 k2 d7 k2 e3, PS)
target mRNA inhibition ([1]; HepG2, 3 µM): 21%

TTCTACAGCTAGCAGGATAA (sugars e5 d10 e5, PS)
target mRNA inhibition ([1]; HepG2, 2 µM): 50%

TAACAGATGAGTTAAGG (sugars e2 k2 d8 k2 e3, PS)
target mRNA inhibition ([1]; HepG2, 4 µM): 68%

TTTTATTCACAGGCTTG (sugars e2 k2 d9 k2 e2, PS)
target mRNA inhibition ([1]; HepG2, 5 µM): 48%

TATAGGCCAGACCTCCGCGC (sugars e5 d10 e5, PS)
target mRNA inhibition ([1]; HepG2, 4 µM): 40%

TCTACAGCTAGCAGGAT (sugars e2 k2 d8 k2 e3, PS)
target mRNA inhibition ([1]; HepG2, 0.1875 µM): 23% | target mRNA inhibition ([1]; HepG2, 0.75 µM): 51% | target mRNA inhibition ([1]; HepG2, 3 µM): 74% | target mRNA inhibition ([1]; HepG2, 4 µM): 75% | target mRNA inhibition ([1]; HepG2, 12 µM): 91%

ACATGCCTCTCTTCATC (sugars e3 k2 d7 k2 e3, PS)
target mRNA inhibition ([1]; HepG2, 3 µM): 0%

CAGCAGTCACATTGCCC (sugars e3 k2 d7 k2 e3, PS)
target mRNA inhibition ([1]; HepG2, 3 µM): 7%

TACTTTCTTCATTTCCA (sugars e3 k2 d7 k2 e3, PS)
target mRNA inhibition ([1]; HepG2, 3 µM): 18%

CCAAGGGAATGTTTATT (sugars e2 k2 d9 k2 e2, PS)
target mRNA inhibition ([1]; HepG2, 4 µM): 52%

AGTGATCATAAATCAGT (sugars e2 k2 d9 k2 e2, PS)
target mRNA inhibition ([1]; HepG2, 5 µM): 32%

TTCTATTAGAGGGCTA (sugars kkkddddkekekdddd, PS)
target mRNA inhibition ([2]; A431, 2 µM): 42%

CCGTCAATATATTCTT (sugars k2 d4 e3 k2 d5, PS)
target mRNA inhibition ([2]; A431, 0.0156 µM): 28% | target mRNA inhibition ([2]; A431, 0.04 µM): 50% | target mRNA inhibition ([2]; A431, 0.0625 µM): 61% | target mRNA inhibition ([2]; A431, 0.25 µM): 86% | target mRNA inhibition ([2]; A431, 1 µM): 96% | target mRNA inhibition ([2]; A431, 2 µM): 98%

AGTTTTGTAAGTGCAA (sugars kkddddekekeddddd, PS)
target mRNA inhibition ([2]; A431, 0.0156 µM): 25% | target mRNA inhibition ([2]; A431, 0.0625 µM): 53% | target mRNA inhibition ([2]; A431, 0.25 µM): 79% | target mRNA inhibition ([2]; A431, 1 µM): 91% | target mRNA inhibition ([2]; A431, 2 µM): 91%

TGTTATATTTGATCCT (sugars kkddddkdkdkddddd, PS)
target mRNA inhibition ([2]; A431, 2 µM): 86%

GCAGTTTCATATTCAC (sugars k4 d9 k3, PS)
target mRNA inhibition ([2]; A431, 0.0625 µM): 75% | target mRNA inhibition ([2]; A431, 0.25 µM): 92% | target mRNA inhibition ([2]; A431, 1 µM): 98%

TGTTATATTTGATCCT (sugars k2 d4 e3 k2 d5, PS)
target mRNA inhibition ([2]; A431, 2 µM): 87%
